Reference: patent US20180049996A1, “THERAPEUTIC AGENT FOR CHRONIC RESPIRATORY DISEASE AND COMPOSITION FOR INHIBITING CARDIAC FIBROSIS” (NIPPON HYPOX LABORATORIES INCORPORATED, priority 2015, published 2018)

How the values were obtained:
sputum excretion = assay: Sputum excretion action (phenol red excretion from trachea sections, method of Engler et al.); assay type: in vivo, male ICR mice; settings: relative to negative control
Method: The hydroquinone derivative of the present invention was orally administered to 8 week old male ICR mice in a single dose, and the sputum excretion action was evaluated according to the method of Engler et al. (Engler H, Szelenyi I, J.Pharmacol. Moth. 11, 151-157, 1984).
Specifically, the test was conducted as follows. The test material was orally administered to the mice in the control group and the test groups, i.e., an aqueous solution of 2% gum arabic was administered to the mice in the negative control group, and 2,3,5-trimethylhydroquinone-1-hexyl ether (HTHQ), the test substance, was orally administered to the mice in the HTHQ-administered groups at 100 mg/kg body weight, 200 mg/kg body weight and 400 mg/kg body weight, respectively. Ambroxol (a product from Sigma-Aldrich) was orally administered to the mice in the ambroxol administered group at 250 mg/kg body weight. Here, ambroxol is a substance having expectoration action and has been selected as a positive control substance. 30 minutes after the oral administration of the test material, saline in which phenol red (a product from Sigma-Aldrich) was dissolved at a concentration of 0.05 g/mL was intraperitoneally administered at 15 mL/kg. Then, 30 minutes after the administration of phenol red, the mice were euthanized by inhalation of carbon dioxide, and the tracheae were extirpated. Given sites of the extirpated tracheae were cut into sections of fixed size to obtain trachea sections. The obtained trachea sections were added to centrifugation tubes, and 1 mL of saline was added there, and the mixture was sonicated using a ultrasonic washing machine for 15 minutes. After the centrifugation of 5 minutes at 10000 rpm, 0.5 mL of a upper layer solution was dispensed to the centrifugation tubes and 0.05 mL of 1 N sodium hydroxide was added to the tubes. After stirring with a vortex mixer, 0.2 mL of a sample was dispensed to a 96 well plate, and absorbance was measured at 546 nm using a micro plate reader (a product from BioTek Instruments, Inc). The amounts of phenol red excreted from the trachea sections of the mice in the control group and test groups were calculated by extrapolating the measured absorbance to the standard curve based on the absorbance of phenol red reference standard ([…], 2.3 and 1.2 ng/mL). The amounts of phenol red excreted from the trachea sections were substituted in the following formula to calculate the sputum excretion ability of the test material. The formula to calculate the sputum excretion ability is as follows: “sputum excretion ability(%)={(A/B)−1}×100” wherein A is the amounts of phenol red of the test material administered groups (an average) and B is the amount of phenol red of the negative control group (an average).

IL-6 = IL-6 level in BAL fluid (ELISA), COPD model; assay type: in vivo, C57BL/6N mice; settings: HTHQ 10 and 20 mg/kg/day oral; tobacco smoke 10 days + LPS; compared to COPD model group
Method: (§1) 6 week old male SPF C57BL/6N mice, 20 to 25 g of body weight, were purchased from CORETEC INC. (South Korea).
The tests were conducted as follows. The mice in the COPD (chronic obstructive pulmonary disease) model group of the test groups were exposed to tobacco smoke for 1 hour per day (8 cigarettes/day) for 10 days and LPS (5 μg/50 μL/mouse) was intranasally administered to the mice on day 8 after the start of the tests. […]
(§2) The mice in the test groups were euthanized 72 hours after the LPS administration and the mice in the normal control group were euthanized on day 11 after the start of the tests by intraperitoneal injection of pentobarbital (Hanrimu pharmaceutical, South Korea) at 50 mg/kg and then the bronchi were excised. […] After preparing slide samples from 100 μL of BAL cell fluid using Cytospin (4° C., 1000 rpm×5 min), the cell numbers of inflammatory cells (neutrophil, macrophages) present in the BAL fluid were counted using a Diff-Quik stain kit.
The supernatant of the BAL fluid stored was taken out of the super-cryostat, and TNF-α and IL-6 levels were measured as the levels of pro-inflammatory cytokines in the supernatant. A quantitative ELISA kit (a product from Invitrogen) and an ELISA analyzer (a product from Molecular Devices, LLC.) were used for the measurement and the measurement wavelength was 450 nm.

[1] = system: Lung Inflammation Induced by Tobacco Smoke; assay: BAL inflammatory cell numbers, lung inflammation induced by tobacco smoke (COPD model); assay type: in vivo, C57BL/6N mice; settings: HTHQ 10 and 20 mg/kg/day oral; tobacco smoke 10 days + LPS; compared to COPD model group
Method: as §1
The tests were conducted as follows. The mice in the COPD (chronic obstructive pulmonary disease) model group of the test groups were exposed to tobacco smoke for 1 hour per day (8 cigarettes/day) for 10 days and LPS (5 μg/50 μL/mouse) was intranasally administered to the mice on day 8 after the start of the tests. Roflumilast, the positive control substance, was orally administered to the mice in the positive control substance-administered group at 10 mg/kg body weight/day, and then they were exposed to tobacco smoke for 10 days starting from 1 hour after the administration of roflumilast, and LPS (5 μg/50 μL/mouse) was intranasally administered to the mice on day 8 after the start of the tests. […]
as §2

[2] = system: Lung Inflammation Induced by Tobacco Smoke; assay: Histopathologic examination of lungs, COPD model; assay type: in vivo, C57BL/6N mice; settings: HTHQ 10 and 20 mg/kg/day oral; tobacco smoke 10 days + LPS; compared to COPD model group
Method: as §1
The tests were conducted as follows. The mice in the COPD (chronic obstructive pulmonary disease) model group of the test groups were exposed to tobacco smoke for 1 hour per day (8 cigarettes/day) for 10 days and LPS (5 μg/50 μL/mouse) was intranasally administered to the mice on day 8 after the start of the tests. Roflumilast, the positive control substance, was orally administered to the mice in the positive control substance-administered group at 10 mg/kg body weight/day, and then they were exposed to tobacco smoke for 10 days starting from 1 hour after the administration of roflumilast, and LPS (5 μg/50 μL/mouse) was intranasally administered to the mice on day 8 after the start of the tests. Here, roflumilast is a selective phosphodiesterase 4 inhibitor and is a substance which is used as a therapeutic agent of COPD and asthma (approved in Europe and the United States, not approved in Japan). […] All the animals were euthanized on day 11 and bronchoalveolar lavage (BAL) examination and histopathologic examination of lungs were conducted. The mice in the normal control group and the test groups were fed sterile tap water and standard food for rodents during the test period. […]

## CCCCCCOc1cc(C)c(O)c(C)c1C [HTHQ, 2,3,5-trimethylhydroquinone-1-hexyl ether]
Sputum excretion; HTHQ 100 mg/kg oral single dose
  sputum excretion ability: 24.6%
Sputum excretion; HTHQ 200 mg/kg oral single dose, significant increase
  sputum excretion ability: 30.0%
Sputum excretion; HTHQ 400 mg/kg oral single dose, significant increase
  sputum excretion ability: 36.2%
IL-6
  IL-6 level in BAL fluid: significantly reduced
[1]
  infiltration of inflammatory cells (neutrophil, macrophages) in BAL fluid: effectively reduced
[2]
  infiltration of inflammatory cells in peribronchial lung tissue (HE stain): significantly reduced in a dose-dependent manner
